This is an account of results in patent US20240307283A1, “COMPOSITIONS AND METHODS FOR DECREASING PIGMENTATION” (The General Hospital Corporation, priority 2021, published 2024).

One data set deals with murine Melan-A cells. Description: Melanin content of Melan-A cells with NNT inhibitors. The class given is cell-based, mouse. The note with it: 2 mM, FIG. 3A. The method, then:
Murine Melan-A (Bennett et al., 1987) cells were obtained from the Wellcome Trust Functional Genomics Cell Bank. Melan-A cells were grown in RPMI 1640 supplemented with 10% FBS or FetalPlex (Gemini Bio-Products, #100-602), 100,000 U/L penicillin, 100 mg/L streptomycin sulphate, 100× Glutamax, and 200 nM TPA.
In vitro culture with NNT inhibitors: 2,3-Butanedione 97% (2,3 BD) (Sigma Aldrich, #B85307) (1 μM, 10 μM, 100 μM, 2 mM), N,N-Dicyclohexylcarbodiimide (DCC) (Sigma Aldrich, #D80002) (1 mM, 2 mM, 10 mM), and Palmitoyl coenzyme A lithium salt (Sigma Aldrich, #P9716) (10 μM, 2 mM) were reconstituted with DMSO (American Type Culture Collection, 4-X).
Melanin quantification: Equal numbers of cells were plated in 6-well plates. The cells were then harvested 72-96 hours post siRNA or NNT inhibitors compounds, as indicated in the legends, pelleted, washed in PBS and counted. 10^6 cells were used for measurement of protein concentration with the Pierce BCA protein assay (Thermo Fisher Scientific, #23225) and 10^6 cells were resuspended in 60 μl of 1 N NaOH solution and incubated at 60° C. for 2 h or until the melanin was completely dissolved. After cooling down to room temperature, samples were centrifuged at 500×g for 10 min and the supernatants were loaded onto a 96-well plate. The melanin content was determined by measuring the absorbance at 405 nm on an Envision plate reader, compared with a melanin standard (0 to 50 μg/ml; Sigma Aldrich, #M8631). Melanin content was expressed as micrograms per milligram of protein.

Data set [1] has as its system Zebrafish overexpressing NNT (NNT OE). In words: 2,3BD treatment of zebrafish overexpressing NNT. The class given is in vivo. The note with it: 100 μM for 24 hours, FIG. 11C. The method, then:
The human NNT gene was cloned into the MiniCoopR expression plasmid to allow melanocyte-specific overexpression of NNT (Ceol et al., 2011). The mcr:NNT plasmid was injected into Tubingen zebrafish embryos at the single cell stage and incorporated into the genome through the use of Tol2 transgenesis. Larvae were raised for 5 days and then at least three images were obtained and quantified using a Nikon SMZ18 Stereomicroscope. At least 5 zebrafish embryos of each group were analyzed after 5 days using the […] software enabling pixel-based color quantification. Wildtype Tübingen zebrafish were placed in a 24 well plate at 72 hours post-fertilization, with 10 larvae per well for a total twenty larvae per condition. Larvae were treated for 24 hours with either 2,3BD (1 μM, 10 μM, 100 μM, 1 mM; Sigma Aldrich, #B85307), DCC (1 μM, 10 μM, 50 μM, 100 μM; Sigma Aldrich, #D80002), or DMSO (1:500) in E3 embryo medium. At 4 days post fertilization, larvae were imaged using a Nikon SMZ18 Stereomicroscope. Melanocytes from at least 5 zebrafish embryos of each group for each experiment were analyzed using the FIJI software enabling pixel-based color quantification.

A further data set has as its system human skin explants. Description: Pigmentation of human skin explants with topical NNT inhibitors.
The target in another data set is T1, NNT (Homo sapiens, UniProt Q13423).
T1 sequence (Q13423 44-1086): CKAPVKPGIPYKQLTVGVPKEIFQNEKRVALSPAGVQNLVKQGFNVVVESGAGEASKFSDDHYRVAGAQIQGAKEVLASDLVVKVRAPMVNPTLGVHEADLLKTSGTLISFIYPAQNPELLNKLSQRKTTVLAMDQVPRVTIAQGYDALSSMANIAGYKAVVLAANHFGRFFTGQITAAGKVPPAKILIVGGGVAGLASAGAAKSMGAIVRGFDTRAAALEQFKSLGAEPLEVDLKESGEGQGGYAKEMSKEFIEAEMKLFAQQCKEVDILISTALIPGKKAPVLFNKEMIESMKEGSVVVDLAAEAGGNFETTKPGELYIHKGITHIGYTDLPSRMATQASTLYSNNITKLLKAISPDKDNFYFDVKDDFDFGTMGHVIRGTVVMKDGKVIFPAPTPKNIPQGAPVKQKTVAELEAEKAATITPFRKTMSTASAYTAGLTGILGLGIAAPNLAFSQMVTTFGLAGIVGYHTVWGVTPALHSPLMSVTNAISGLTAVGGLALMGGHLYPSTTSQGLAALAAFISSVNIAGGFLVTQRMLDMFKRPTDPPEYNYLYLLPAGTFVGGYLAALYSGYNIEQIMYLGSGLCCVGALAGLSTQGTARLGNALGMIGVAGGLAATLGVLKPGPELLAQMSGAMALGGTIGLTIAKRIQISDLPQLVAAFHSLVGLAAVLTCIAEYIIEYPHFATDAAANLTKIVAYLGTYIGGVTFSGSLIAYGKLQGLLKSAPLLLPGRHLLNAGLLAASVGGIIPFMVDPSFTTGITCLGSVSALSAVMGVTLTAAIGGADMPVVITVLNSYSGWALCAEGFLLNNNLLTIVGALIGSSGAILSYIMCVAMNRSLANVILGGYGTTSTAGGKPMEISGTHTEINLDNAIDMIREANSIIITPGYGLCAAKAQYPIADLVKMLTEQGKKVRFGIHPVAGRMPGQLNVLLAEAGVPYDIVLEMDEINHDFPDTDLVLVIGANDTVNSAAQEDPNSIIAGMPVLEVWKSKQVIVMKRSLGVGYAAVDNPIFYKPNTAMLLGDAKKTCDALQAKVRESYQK
Description: GSH/GSSG ratio (indirect endpoint of NNT enzyme activity) in primary melanocytes. The arrangement: endogenous in cells; host or cells: primary human melanocytes (isolated from neonatal foreskins). As to conditions: different doses, 24 hours. The class given is cell-based. The method, then: Glutathione measurements: Cell lysates were prepared from equal numbers of cells after 24 h of DCC or 2,3BD treatment, following the manufacturer's protocols. Seventy-two h post siRNA treatment or overexpression of NNT and their corresponding controls, glutathione levels were determined using the GSH/GSSG-Glo assay (Promega, #V6611) and luminescence was measured using an EnVision 2104 Multilabel Reader (PerkinElmer).

For `CC(=O)C(C)=O` [2,3BD, 2,3-Butanedione], the melanin content result with murine Melan-A cells is given as “increased melanin content”. Also, the “melanocytic pigmentation of NNT overexpressing fish” value in data set [1] was “prevented the NNT OE-induced decrease in melanocytic pigmentation”. In addition, the “melanin by Fontana-Masson staining” value in the data set with human skin explants (2,3BD treated skin, FIGS. 3Ei and 10F) was “increased melanin”. Further, the “cell damage or inflammation by H&E staining” value in the data set on human skin explants (FIG. 3Eii) is given as “no obvious cell damage or inflammation”. Besides, the skin pigmentation result in the data set on human skin explants (abdominal skin, phototype 1-2, single topical treatment 1M or 11M, after 5 days) is “strong induction of pigmentation”; in the data set on human skin explants (daily application of 50 mM, skin type 3-4, after 5 days), “significantly increased pigmentation”. The GSH/GSSG ratio result at NNT is on record as “decreased GSH/GSSG ratios”.
